Our source for the EC50 and IC50 values is patent publication US9745291B2, “PRMT5 inhibitors containing a dihydro- or tetrahydroisoquinoline and uses thereof” (Epizyme, Inc., priority 2012, dated 2017).

Experiment [1] deals with symmetric di-methyl arginine in Z-138 cells. Nature of the experiment: Z-138 Methylation Assay (In Cell Western for symmetric di-methyl arginine and DNA content). In kind it is cell-based. The note with it: Homo sapiens, Z-138, Z-138 cells, read-out: ICW EC50. From the text:
[formula] Where top and bottom are the normally allowed to float, but may be fixed at 100 or 0 respectively in a 3-parameter fit. The Hill Coefficient normally allowed to float but may also be fixed at 1 in a 3-parameter fit. Y is the % inhibition and X is the compound concentration. Z-138 Methylation Assay
Z-138 suspension cells were purchased from ATCC (American Type Culture Collection, Manassas, Va.). RPMI/Glutamax medium, penicillin-streptomycin, heat inactivated fetal bovine serum, and D-PBS were purchased from Life Technologies, Grand Island, N.Y., USA. Odyssey blocking buffer, 800CW goat anti-rabbit IgG (H+L) antibody, and Licor Odyssey infrared scanner were purchased from Licor Biosciences, Lincoln, Nebr., USA. Symmetric di-methyl arginine antibody was purchased from EMD Millipore, Billerica, Mass., USA. 16% Paraformaldehyde was purchased from Electron Microscopy Sciences, Hatfield, Pa., USA.
Z-138 suspension cells were maintained in growth medium (RPMI 1640 supplemented with 10% v/v heat inactivated fetal bovine serum and 100 units/mL penicillin-streptomycin) and cultured at 37° C. under 5% CO2.
Cell Treatment, in Cell Western (ICW) for Detection of Symmetric Di-Methyl Arginine and DNA Content.
Z-138 cells were seeded in assay medium at a concentration of 50,000 cells per mL to a 384-well cell culture plate with 50 μL per well. Compound (100 nL) from 384 well source plates was added directly to 384 well cell plate. Plates were incubated at 37° C., 5% CO2 for 96 hours. After four days of incubation, 40 μL of cells from incubated plates were added to poly-D-lysine coated 384 well culture plates (BD Biosciences 356697). Plates were incubated at room temperature for 30 minutes then incubated at 37° C., 5% CO2 for 5 hours. After the incubation, 40 μL per well of 8% paraformaldehyde in PBS (16% paraformaldahyde was diluted to 8% in PBS) was added to each plate and incubated for 30 minutes. Plates were transferred to a Biotek 405 plate washer and washed 5 times with 100 μL per well of wash buffer (1×PBS with 0.1% Triton X-100 (v/v)). Next 30 μL per well of Odyssey blocking buffer were added to each plate and incubated 1 hour at room temperature. Blocking buffer was removed and 20 μL per well of primary antibody was added (symmetric di-methyl arginine diluted 1:100 in Odyssey buffer with 0.1% Tween 20 (v/v)) and plates were incubated overnight (16 hours) at 4° C. Plates were washed 5 times with 100 μL per well of wash buffer. Next 20 μL per well of secondary antibody was added (1:200 800CW goat anti-rabbit IgG (H+L) antibody, 1:1000 DRAQ5 (Biostatus limited) in Odyssey buffer with 0.1% Tween 20 (v/v)) and incubated for 1 hour at room temperature. The plates were washed 5 times with 100 μL per well wash buffer then 1 time with 100 μL per well of water. Plates were allowed to dry at room temperature then imaged on the Licor Odyssey machine which measures integrated intensity at 700 nm and 800 nm wavelengths. Both 700 and 800 channels were scanned.
First, the ratio for each well was determined by:
Each plate included fourteen control wells of DMSO only treatment (minimum inhibition) as well as fourteen control wells for maximum inhibition treated with 3 μM of a reference compound (Background wells). The average of the ratio values for each control type was calculated and used to determine the percent inhibition for each test well in the plate. Reference compound was serially diluted three-fold in DMSO for a total of nine test concentrations, beginning at 3 μM. Percent inhibition was determined and IC50 curves were generated using triplicate wells per concentration of compound. […]

The next experiment deals with PRMT5/MEP50 (Homo sapiens (Human), UniProt O14744). Nature of the experiment: PRMT5 Biochemical Assay (PRMT5/MEP50 enzyme assay on peptide substrate, 3H-SAM Flashplate). The conditions noted are these: PRMT5 biochemical assay; read-out: Biochemical IC50.
The subject of another experiment is Z-138 cell line. Nature of the experiment: Z-138 Proliferation Assay (Cell Titer Glo, 5 days). The note with it: Z-138 cells. It counts as cell-based. From the text: [formula] Z-138 Proliferation Assay
Z-138 suspension cells were purchased from ATCC (American Type Culture Collection, Manassas, Va.). RPMI/Glutamax medium, penicillin-streptomycin, heat inactivated fetal bovine serum were purchased from Life Technologies, Grand Island, N.Y., USA. V-bottom polypropylene 384-well plates were purchased from Greiner Bio-One, Monroe, N.C., USA. Cell culture 384-well white opaque plates were purchased from Perkin Elmer, Waltham, Mass., USA. Cell-Titer Glo® was purchased from Promega Corporation, Madison, Wis., USA. SpectraMax M5 plate reader was purchased from Molecular Devices LLC, Sunnyvale, Calif., USA.
Z-138 suspension cells were maintained in growth medium (RPMI 1640 supplemented with 10% v/v heat inactivated fetal bovine serum and cultured at 37° C. under 5% CO2 Under assay conditions, cells were incubated in assay medium (RPMI 1640 supplemented with 10% v/v heat inactivated fetal bovine serum and 100 units/mL penicillin-streptomycin) at 37° C. under 5% CO2.
For the assessment of the effect of compounds on the proliferation of the Z-138 cell line, exponentially growing cells were plated in 384-well white opaque plates at a density of 10,000 cells/ml in a final volume of 50 μl of assay medium. A compound source plate was prepared by performing triplicate nine-point 3-fold serial dilutions in DMSO, beginning at 10 mM (final top concentration of compound in the assay was 20 μM and the DMSO was 0.2%). A 100 nL aliquot from the compound stock plate was added to its respective well in the cell plate. […] After addition of compounds, assay plates were incubated for 5 days at 37° C., 5% CO2, relative humidity >90%.
Cell viability was measured by quantitation of ATP present in the cell cultures, adding 35 μl of Cell Titer Glo® reagent to the cell plates. Luminescence was read in the SpectraMax M5 microplate reader. The concentration of compound inhibiting cell viability by 50% was determined using a 4-parametric fit of the normalized dose response curves.

Chain of PRMT5/MEP50 (O14744 other isoform, or with tags, fused parts or gaps): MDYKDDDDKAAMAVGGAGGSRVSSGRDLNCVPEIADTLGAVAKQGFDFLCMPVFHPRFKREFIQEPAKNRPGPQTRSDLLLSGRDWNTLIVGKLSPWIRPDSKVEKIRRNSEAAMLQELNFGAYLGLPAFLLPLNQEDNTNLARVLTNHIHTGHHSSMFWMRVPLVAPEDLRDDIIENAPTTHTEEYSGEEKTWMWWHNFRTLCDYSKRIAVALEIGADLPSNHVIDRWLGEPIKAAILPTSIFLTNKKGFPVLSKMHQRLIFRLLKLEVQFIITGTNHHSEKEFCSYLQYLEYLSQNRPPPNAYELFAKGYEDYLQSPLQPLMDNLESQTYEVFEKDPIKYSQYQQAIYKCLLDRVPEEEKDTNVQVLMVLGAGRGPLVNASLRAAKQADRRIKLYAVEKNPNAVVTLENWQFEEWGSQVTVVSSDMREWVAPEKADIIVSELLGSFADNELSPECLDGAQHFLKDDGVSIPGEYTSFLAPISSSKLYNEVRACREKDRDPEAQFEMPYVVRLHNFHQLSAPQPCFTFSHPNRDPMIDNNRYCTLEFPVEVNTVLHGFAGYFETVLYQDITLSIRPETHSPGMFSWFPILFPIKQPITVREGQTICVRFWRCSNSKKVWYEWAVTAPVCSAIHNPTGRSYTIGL
Chain of PRMT5/MEP50 (Q9BQA1 other isoform, or with tags, fused parts or gaps partner): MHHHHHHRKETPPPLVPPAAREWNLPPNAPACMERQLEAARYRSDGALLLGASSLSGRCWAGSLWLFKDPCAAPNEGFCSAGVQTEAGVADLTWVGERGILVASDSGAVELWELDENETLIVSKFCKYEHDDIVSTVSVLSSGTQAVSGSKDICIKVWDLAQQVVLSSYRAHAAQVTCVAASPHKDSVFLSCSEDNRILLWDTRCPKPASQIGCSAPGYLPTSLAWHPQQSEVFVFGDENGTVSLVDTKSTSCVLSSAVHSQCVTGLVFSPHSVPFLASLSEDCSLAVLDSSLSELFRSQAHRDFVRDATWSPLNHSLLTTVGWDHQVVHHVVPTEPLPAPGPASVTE

`O=C(CCn1cnc2ccccc21)NC[C@@H](O)CN1CCc2ccccc2C1` [Compound 206]: the EC50 in experiment [1] is > 1 µM; in the experiment on Z-138 cell line (Homo sapiens, Z-138, 120 h), > 20 µM. For the same compound, the IC50 on PRMT5/MEP50 was in the range of 1 to 10 µM.
Taken in the same sequence, the figures for `Cc1ccc2[nH]c(CCC(=O)NC[C@@H](O)CN3CCc4ccccc4C3)nc2c1` [Compound 207] were 0.101 to 1 µM, 10 to 50 µM and 0.101 to 1 µM.
For `O=C(CCc1nc2cc(Cl)ccc2[nH]1)NC[C@@H](O)CN1CCc2ccccc2C1` [Compound 208], in that order: 0.101 to 1 µM, 10 to 50 µM and 0.101 to 1 µM.
As for `CN(C[C@@H](O)CN1CCc2ccccc2C1)C(=O)CCc1nc2ccccc2[nH]1` [Compound 209], the EC50 is 0.101 to 1 µM in experiment [1] and 10 to 50 µM with Z-138 cell line (Homo sapiens, Z-138, 120 h). For the same compound, on PRMT5/MEP50, the IC50 fell in the range of 0.101 to 1 µM.
Regarding `CC1CN(S(=O)(=O)c2ccccc2OCC(=O)NC[C@@H](O)CN2CCc3ccccc3C2)CCN1` (some centres unmarked) [Compound 210], the EC50 lay in the range of 0.101 to 1 µM in experiment [1] and 10 to 50 µM in the experiment on Z-138 cell line (Homo sapiens, Z-138, 120 h). Further, the IC50 on PRMT5/MEP50 lay in the range of 0.101 to 1 µM.
For the compound `CC1CN(S(=O)(=O)c2ccccc2OCC(=O)NC[C@@H](O)CN2CCc3ccccc3C2)CCN1C` (some centres unmarked) [Compound 211], the EC50 in experiment [1] was > 1 µM; with Z-138 cell line (Homo sapiens, Z-138, 120 h), > 20 µM. Further, the IC50 on PRMT5/MEP50 was 1 to 10 µM.
Taken in the same sequence, the figures for `O=C(CCc1nc2cc(F)ccc2[nH]1)NC[C@@H](O)CN1CCc2ccccc2C1` [Compound 213] were 0.101 to 1 µM, > 20 µM and 0.101 to 1 µM.
For `CN(CCN1CCCCC1)S(=O)(=O)c1ccccc1OCC(=O)NC[C@@H](O)CN1CCc2ccccc2C1` [Compound 214], in that order: < 0.1 µM, 0.101 to 1 µM and < 0.1 µM.
For the compound `NC1CN(S(=O)(=O)c2ccccc2OCC(=O)NC[C@@H](O)CN2CCc3ccccc3C2)CC1O` (some centres unmarked) [Compound 215], the EC50 is > 1 µM in experiment [1] and > 20 µM in the experiment on Z-138 cell line (Homo sapiens, Z-138, 120 h). Besides, at PRMT5/MEP50, the IC50 is < 0.1 µM.
Turning to `CN(C)C1CN(S(=O)(=O)c2ccccc2OCC(=O)NC[C@@H](O)CN2CCc3ccccc3C2)CC1O` (some centres unmarked) [Compound 216], the EC50 in experiment [1] was 0.101 to 1 µM; in the experiment with Z-138 cell line (Homo sapiens, Z-138, 120 h), > 20 µM. The IC50 on PRMT5/MEP50 fell in the range of 0.101 to 1 µM.
In the case of `O=C(COc1ccccc1S(=O)(=O)N1CCNC(CO)C1)NC[C@@H](O)CN1CCc2ccccc2C1` (some centres unmarked) [Compound 217], the EC50 in experiment [1] was 0.101 to 1 µM; in the experiment with Z-138 cell line (Homo sapiens, Z-138, 120 h), > 20 µM. The IC50 on PRMT5/MEP50 lay within 0.101 to 1 µM.
`Cn1cnc(CCNC(=O)c2cccc(OCC(=O)NC[C@@H](O)CN3CCc4ccccc4C3)c2)c1` [Compound 218]: the EC50 in experiment [1] is > 1 µM; in the experiment on Z-138 cell line (Homo sapiens, Z-138, 120 h) it was > 20 µM. Moreover, the IC50 on PRMT5/MEP50 fell in the range of 0.101 to 1 µM.
With `CN(CC1CCNC1)S(=O)(=O)c1ccccc1OCC(=O)NC[C@@H](O)CN1CCc2ccccc2C1` (some centres unmarked) [Compound 219], the EC50 in experiment [1] was < 0.1 µM; in the experiment on Z-138 cell line, 0.101 to 1 µM. Moreover, the IC50 at PRMT5/MEP50 is < 0.1 µM.
With `CN(C)S(=O)(=O)c1c(OCC(=O)NC[C@@H](O)CN2CCc3ccccc3C2)cccc1N1CCNCC1` [Compound 252], the EC50 in experiment [1] is < 0.1 µM; with Z-138 cell line (Homo sapiens, Z-138, 120 h), < 0.1 µM.

The term EC50 denotes the concentration giving half of the maximal effect. One may read the IC50 as the concentration needed to halve the response being measured.
